Results published in patent US9975893B2, “Pyrazolo[3,4-c]pyridine derivatives” (CSPC ZHONGQI PHARMACEUTICAL TECHNOLOGY (SHIJIAZHUANG) CO., …, priority 2014, dated 2018).

How the values were obtained:
Factor Xa = target: T1, Factor Xa (Homo sapiens, UniProt P00742); assay: Anti-Factor Xa activity assay (chromogenic substrate CS-11(22)); assay type: biochemical; conditions: ratio of compound IC50 to apixaban IC50; Factor Xa 0.1 U/ml, absorbance at 405 nm, 37° C.
T1 construct: purchased MERK
Protocol: I. Anti-Factor Xa Activity Assay
Substrate: CS-1122 (Hyphen)
Buffer: 50 mM TrisHCl, 150 mM NaCl, PH8.3
100 μL of buffer, 50 μL of different concentrations of compounds (diluted with buffer) and 50 μl of 0.1 U/ml Factor Xa enzyme (diluted with buffer) were added to a 96-well plate. After 15 min of exposure, 50 μL of chromogenic substrate 2.5 mg/ml CS-11 (22) was added. The substrate hydrolysis was monitored by measuring absorbance at 405 nm at 37° C. for up to 30 min (interval: 30 seconds) using a microplate spectrophotometer. IC50 was calculated by bliss.

Male SD rats [1] = assay: Arteriovenous shunt model in rats; assay type: in vivo, rat; parameters: concentration or dose not given beside the values; conditions: rats given orally 2-4 hours before shunt opened; shunt 15 minutes; thrombus weight, treated vs. mean vehicle
From the text: III. Arteriovenous Shunt Model in Rats
Two 10 cm-long polyethylene tubings (1.50 and 2.88 mm of inner and outer diameter, respectively) linked to a central part (8 cm-long, 2.11 and 3.77 mm of inner and outer diameter, respectively) containing a 6 cm silk thread and filled with heparin (3.125 U/ml) were placed between the right carotid artery and the left jugular vein in rats.
Male SD rats were anesthetized by intraperitoneal injection of 10% chloral hydrate after oral dose, inverted fixation, then the right catotid artery and left vena jugularis externa were isolated, the proximal and distal sutures of catotid artery were tied. The syringe needle were cannulated into the catotid artery and fasted, the other of the tube was cannulated into the right vena jugularis externa. Rats were given orally 2-4 hours before the shunt was opened. Blood flowed from the right carotid artery into the polyethylene tubing and then return to left vena jugularis externa. The shunt was then disconnected 15 minutes later and the silk thread covered with thrombus was immediately withdrawn and weighed. The wet weight of the thrombus was determined. Then the silk thread was dried at 60° C. for 4 h to get the dry weight of the thrombus. The anti-thrombotic effects of these agents were expressed as percentage inhibition of thrombus formation based on the treated vs. the corresponding mean vehicle.

Male SD rats [2] = assay: Rat tail bleeding model; assay type: in vivo; conditions: rat tail transected 0.5 to 4 hours after administration; prolongation = ratio of treated vs. mean vehicle value; relative to apixaban
Protocol: II Rat Tail Bleeding Model
Male SD rats were allocated randomly and administrated. After the administration, the rats were anesthetized by intraperitoneal injection of 10% chloral hydrate. At the time point of 0.5 to 4 hours (Tmax in PK) after the administration, the tails of anesthetized rats were transected 3 mm from the tip and vertically immersed in saline at 37° C. The time point when the continuous blood flow ceased for >30 s was measured. The prolongation of bleeding time was expressed as a ratio of treated vs. the mean vehicle value. Effects of compounds were determined as described below.

T1 sequence (P00742 235-488 limits assumed): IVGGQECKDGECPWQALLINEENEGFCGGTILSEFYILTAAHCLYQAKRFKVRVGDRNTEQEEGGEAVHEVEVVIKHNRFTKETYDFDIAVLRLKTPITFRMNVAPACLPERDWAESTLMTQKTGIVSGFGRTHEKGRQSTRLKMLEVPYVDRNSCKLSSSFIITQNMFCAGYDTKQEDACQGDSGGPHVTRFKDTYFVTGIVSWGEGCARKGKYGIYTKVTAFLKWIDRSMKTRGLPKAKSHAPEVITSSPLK
T1 sequence (P00742 41-179 partner limits assumed): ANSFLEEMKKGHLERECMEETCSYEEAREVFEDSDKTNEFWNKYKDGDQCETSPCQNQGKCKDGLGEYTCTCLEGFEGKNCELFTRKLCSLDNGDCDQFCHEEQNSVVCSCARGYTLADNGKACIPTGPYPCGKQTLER

Row | SMILES | IC50(Compound)/IC50(apixaban) (Factor Xa) | Inhibition of thrombus formation (%) (Male SD rats [1]) | The Prolongation of bleeding time (compound)/The Prolongation of bleeding time(apixaban) (Male SD rats [2])
1 | COc1ccc(-n2nc(C(N)=O)c3c2C(=O)N(c2ccc(N4CCSCC4=O)cc2)CC3)cc1 [A 3, 1-(4-methoxyphenyl)-6-(4-(3-oxothiomorpholino)phenyl)-7-oxo-4,5,6,7-tetrahydro-1H-pyrazolo[3,4-c]pyridine-3-carboxamide] | <1 |  | 
2 | COc1ccc(-n2nc(C(N)=O)c3c2C(=O)N(c2ccc(N4CCCCC4=O)c(C)c2)CC3)cc1 [A 16, 1-(4-methoxyphenyl)-6-(3-methyl-4-(2-oxopiperidin-1-yl)phenyl)-7-oxo-4,5,6,7-tetrahydro-1H-pyrazolo[3,4-c]pyridine-3-carboxamide] | <1 |  | 
3 | COc1ccc(-n2nc(C(N)=O)c3c2C(=O)N(c2ccc(N4CCOCC4=O)c(C)c2)CC3)cc1 [A 17, 1-(4-methoxyphenyl)-6-(3-methyl-4-(3-oxomorpholino)phenyl)-7-oxo-4,5,6,7-tetrahydro-1H-pyrazolo[3,4-c]pyridine-3-carboxamide] | <1 |  | 
4 | COc1ccc(-n2nc(C(N)=O)c3c2C(=O)N(c2ccc(-n4ccccc4=O)c(C)c2)CC3)cc1 [A 19, 1-(4-methoxyphenyl)-6-(3-methyl-4-(2-oxopyridin-1(2H)-yl)phenyl)-7-oxo-4,5,6,7-tetrahydro-1H-pyrazolo[3,4-c]pyridine-3-carboxamide] | <1 |  | 
5 | CCOc1ccc(-n2nc(C(N)=O)c3c2C(=O)N(c2ccc(-n4cccc(C)c4=O)cc2)CC3)cc1F [A 27, 1-(3-fluoro-4-ethoxyphenyl)-6-(4-(3-methyl-2-oxopyridin-1(2H)-yl)phenyl)-7-oxo-4,5,6,7-tetrahydro-1H-pyrazolo[3,4-c]pyridine-3-carboxamide] | <2 | 68.7% | <1
6 | CCOc1ccc(-n2nc(C(N)=O)c3c2C(=O)N(c2ccc(-n4cccc(C)c4=O)cc2)CC3)cc1 [A 28, 1-(4-ethoxyphenyl)-6-(4-(3-methyl-2-oxopyridin-1(2H)-yl)phenyl)-7-oxo-4,5,6,7-tetrahydro-1H-pyrazolo[3,4-c]pyridine-3-carboxamide] | <1 | 73.1% | <1
7 | CCOc1ccc(-n2nc(C(N)=O)c3c2C(=O)N(c2ccc(N4CCCCC4=O)cc2)CC3)cc1Cl [A 29, 1-(3-chloro-4-ethoxyphenyl)-6-(4-(2-oxopiperidin-1-yl)phenyl)-7-oxo-4,5,6,7-tetrahydro-1H-pyrazolo[3,4-c]pyridine-3-carboxamide] | <2 | 67.4% | <1
8 | CCOc1ccc(-n2nc(C(N)=O)c3c2C(=O)N(c2ccc(-n4cccc(C)c4=O)cc2)CC3)cc1Cl [A 30, 1-(3-chloro-4-ethoxyphenyl)-6-(4-(3-methyl-2-oxopyridin-1(2H)-yl)phenyl)-7-oxo-4,5,6,7-tetrahydro-1H-pyrazolo[3,4-c]pyridine-3-carboxamide] | <2 |  | <1
9 | CCOc1ccc(-n2nc(C(N)=O)c3c2C(=O)N(c2ccc(N4CCCCC4=O)c(C)c2)CC3)cc1 [A 31, 1-(4-ethoxyphenyl)-6-(3-methyl-4-(2-oxopiperidin-1-yl)phenyl)-7-oxo-4,5,6,7-tetrahydro-1H-pyrazolo[3,4-c]pyridine-3-carboxamide] | <1 | 71.5% | <1
10 | CCOc1ccc(-n2nc(C(N)=O)c3c2C(=O)N(c2ccc(N4CCCCC4=O)c(C)c2)CC3)cc1F [A 32, 1-(3-fluoro-4-ethoxyphenyl)-6-(3-methyl-4-(2-oxopiperidin-1-yl)phenyl)-7-oxo-4,5,6,7-tetrahydro-1H-pyrazolo[3,4-c]pyridine-3-carboxamide] | <1 | 61.4% | <1
11 | CCOc1ccc(-n2nc(C(N)=O)c3c2C(=O)N(c2ccc(N4CCOCC4=O)c(C)c2)CC3)cc1 [A 33, 1-(4-ethoxyphenyl)-6-(3-methyl-4-(3-oxomorpholino)phenyl)-7-oxo-4,5,6,7-tetrahydro-1H-pyrazolo[3,4-c]pyridine-3-carboxamide] | <1 | 60.8% | <1
12 | CCOc1ccc(-n2nc(C(N)=O)c3c2C(=O)N(c2ccc(N4CCOCC4=O)c(C)c2)CC3)cc1F [A 34, 1-(3-fluoro-4-ethoxyphenyl)-6-(3-methyl-4-(3-oxomorpholino)phenyl)-7-oxo-4,5,6,7-tetrahydro-1H-pyrazolo[3,4-c]pyridine-3-carboxamide] | <1 | 62.5% | <1
13 | CCOc1ccc(-n2nc(C(N)=O)c3c2C(=O)N(c2ccc(N4CCCC4=O)c(C)c2)CC3)cc1 [A 35, 1-(4-ethoxyphenyl)-6-(3-methyl-4-(2-oxopyrrolidin-1-yl)phenyl)-7-oxo-4,5,6,7-tetrahydro-1H-pyrazolo[3,4-c]pyridine-3-carboxamide] | <2 |  | <1
14 | CCOc1ccc(-n2nc(C(N)=O)c3c2C(=O)N(c2ccc(N4CCCC4=O)c(C)c2)CC3)cc1F [A 36, 1-(3-fluoro-4-ethoxyphenyl)-6-(3-methyl-4-(2-oxopyrrolidin-1-yl)phenyl)-7-oxo-4,5,6,7-tetrahydro-1H-pyrazolo[3,4-c]pyridine-3-carboxamide] | <1 | 71.6% | <1
15 | COc1ccc(-n2nc(C(N)=O)c3c2C(=O)N(c2ccc(N4CCCCC4=O)c(C)c2)CC3)cc1F [A 47, 1-(3-fluoro-4-methoxyphenyl)-6-(3-methyl-4-(2-oxopiperidin-1-yl)phenyl)-7-oxo-4,5,6,7-tetrahydro-1H-pyrazolo[3,4-c]pyridine-3-carboxamide] | <1 |  | 
16 | COc1ccc(-n2nc(C(N)=O)c3c2C(=O)N(c2ccc(N4CCOCC4=O)c(C)c2)CC3)cc1F [A 48, 1-(3-fluoro-4-methoxyphenyl)-6-(3-methyl-4-(3-oxomorpholino)phenyl)-7-oxo-4,5,6,7-tetrahydro-1H-pyrazolo[3,4-c]pyridine-3-carboxamide] | <1 |  | 
17 | COc1ccc(-n2nc(C(N)=O)c3c2C(=O)N(c2ccc(-n4ccccc4=O)c(C)c2)CC3)cc1F [A 50, 1-(3-fluoro-4-methoxyphenyl)-6-(3-methyl-4-(2-oxopyridin-1(2H)-yl)phenyl)-7-oxo-4,5,6,7-tetrahydro-1H-pyrazolo[3,4-c]pyridine-3-carboxamide] | <1 |  | 
18 | COc1ccc(-n2nc(C(N)=O)c3c2C(=O)N(c2ccc(-n4cccc(C)c4=O)c(C)c2)CC3)cc1F [A 51, 1-(3-fluoro-4-methoxyphenyl)-6-(3-methyl-4-(3-methyl-2-oxopyridin-1(2H)-yl)phenyl)-7-oxo-4,5,6,7-tetrahydro-1H-pyrazolo[3,4-c]pyridine-3-carboxamide] | <1 |  | 
